Measured values as given in paper PMC8188729 (Nature, 2020).
Read-outs that look alike come from different tables or passages of the source.

How the values were obtained:
HIV-1IIIb = test: microbe, parasite or virus in culture; type: cell-based
HIV-1BaL = test: p24 endpoint antiviral assay in primary human CD4+ T-lymphocytes; type: cell-based; details: Human immunodeficiency virus 1, CD4+ T, read-out: mean EC50
[1] = tested on: single-cycle reporter HIV-1; test: microbe, parasite or virus in culture; type: cell-based
HIV-1 PR = HIV-1 PR (Human immunodeficiency virus type 1 group M subtype B, UniProt P04585); test: HIV-1 PR cleavage activity in vitro; type: biochemical
Cytotoxicity assay [2] = type: cell-based; details: human, Huh-7 cells
Cytotoxicity assay [3] = type: cell-based; details: human, primary human hepatocytes
Cytotoxicity assay [4] = type: cell-based; details: human, quiescent PBMCs
Cytotoxicity assay [5] = type: cell-based, human; details: human, stimulated PBMCs
Stimulated PBMCs = test: Cytotoxicity assay; type: cell-based, human; details: PBMCs
Cytotoxicity assay [6] = type: cell-based; details: human, monocyte-derived macrophages
[7] = tested on: HIV-1 recombinant strains resistant to NRTIs, NNRTIs, INSTIs, PIs or MIs; type: cell-based
Gag polyprotein = Gag polyprotein (Human immunodeficiency virus type 1 group M subtype B, UniProt P12493); test: biochemical; type: binding
CA monomer = CA monomer (Human immunodeficiency virus type 1 group M subtype B, UniProt P03348); test: biochemical; type: binding
CA hexamer_M66I = CA hexamer_M66I (Human immunodeficiency virus type 1 group M subtype B, UniProt P12493, A146C/E177C/M198I/M317A/W316A); test: Surface plasmon resonance binding assay; design: species or system HIV-1
HIV-1 CA mutants = type: cell-based; details: mutant/WT EC50 ratio
[8] = tested on: primary human hepatocytes; test: Metabolic stability of [3H]GS-6207 in primary human hepatocytes; type: in vitro ADME; details: [3H]GS-6207, primary human hepatocytes
[9] = Study GS-US-200-4070: safety and tolerability in healthy participants; type: in vivo, human; details: for Acne / Any AE / Back pain / Dizziness / Headache / Injection site bruising / Injection site erythema / Injection site induration / Injection site nodule / Injection site pain / Injection site pruritus / Injection site swelling / Nausea / Oropharyngeal pain / Skin mass / Viral upper respiratory tract infection: healthy
HIV-1 capsid = test: Study GS-US-200-4072: HIV-1 resistance analyses; details: in vivo
clinical HIV-1 isolates = test: 7-day RT endpoint antiviral assay in human PBMCs, clinical HIV-1 isolates; details: Human immunodeficiency virus 1, PBMC

Molecule `CC(C)(C#Cc1ccc(-c2ccc(Cl)c3c(NS(C)(=O)=O)nn(CC(F)(F)F)c23)c([C@H](Cc2cc(F)cc(F)c2)NC(=O)Cn2nc(C(F)(F)F)c3c2C(F)(F)[C@@H]2C[C@H]32)n1)S(C)(=O)=O` [GS-6207] has an EC50 (HIV-1IIIb; Human immunodeficiency virus 1, MT4, read-out: mean EC50) of 0.105 nM, an EC95 (HIV-1IIIb; calculated from EC50 and Hill coefficient) of 0.23 nM and an EC50 (HIV-1BaL) of 0.032 nM. The EC50 ([1]; Human immunodeficiency virus 1) was 0.025 nM, the EC50 ([1]; Human immunodeficiency virus 1, HEK-293T) was 0.439 nM and the EC50 ([1]; Human immunodeficiency virus 1, MT2) was 0.023 nM. It also gave an IC50 (HIV-1 PR) of over 50000 nM, a CC50 (Cytotoxicity assay [2]) of over 44400 nM and a CC50 (Cytotoxicity assay [3]) of over 50000 nM. For the same molecule, the CC50 (Cytotoxicity assay [4]) was over 44400 nM, the CC50 (Cytotoxicity assay [5]) was over 50000 nM and the “therapeutic index (CC50/EC50)” value (Stimulated PBMCs) was > 1,000,000. For the same molecule, the CC50 (Cytotoxicity assay [6]) was over 50000 nM, the Fold resistance ([7]; HIV-1 mutant 6TAMs (NRTI)) was 0.2 ± 0.1 (3) and the Fold resistance ([7]; HIV-1 mutant E92Q+N155H (INSTI)) was 0.8 ± 0.4 (3). The Fold resistance ([7]; HIV-1 mutant E138K+Q148K (INSTI)) was 0.6 ± 0.3 (3), the Fold resistance ([7]; HIV-1 mutant G48V+V82A+L90M (PI)) was 0.5 ± 0.2 (3) and the Fold resistance ([7]; HIV-1 mutant G48V+V82S (PI)) was 0.4 ± 0.2 (3). The Fold resistance ([7]; HIV-1 mutant G140S+Q148R (INSTI)) was 0.8 ± 0.3 (3), the Fold resistance ([7]; HIV-1 mutant I84V+L90M (PI)) was 0.3 ± 0.1 (3) and the Fold resistance ([7]; HIV-1 mutant K65R (NRTI)) was 0.6 ± 0.2 (3). For the same molecule, the Fold resistance ([7]; HIV-1 mutant K103N+Y181C (NNRTI)) was 0.6 ± 0.2 (3), the Fold resistance ([7]; HIV-1 mutant L100I+K103N (NNRTI)) was 0.5 ± 0.2 (3) and the Fold resistance ([7]; HIV-1 mutant M46I+I50V (PI)) was 0.7 ± 0.2 (3). The Fold resistance ([7]; HIV-1 mutant M184V (NRTI)) was 0.3 ± 0.3 (3), the Fold resistance ([7]; HIV-1 mutant N155H+Q148R (INSTI)) was 1.2 ± 0.7 (3) and the Fold resistance ([7]; HIV-1 mutant V7A in SP1 (MI)) was 0.8 ± 0.4 (8). The Fold resistance ([7]; HIV-1 mutant V230I in CA (MI)) was 0.7 ± 0.2 (6), the Fold resistance ([7]; HIV-1 mutant Y188L (NNRTI)) was 0.5 ± 0.1 (3) and the Kd (Gag polyprotein) was 1.1 nM. The Kd (CA monomer) was 2.5 nM, the Kd (CA hexamer_M66I) was 60 nM and the koff (CA hexamer_M66I; CA hexamer_M66I) was 2.6 ± 0.3 x 10^−3 s^−1. The kon (CA hexamer_M66I; CA hexamer_M66I) was 6 ± 4 x 10^4 M^−1s^−1, the “Fold GS-6207 resistance” value (HIV-1 CA mutants; HIV-1 CA K70N) was 24 and the “Fold GS-6207 resistance” value (HIV-1 CA mutants; HIV-1 CA L56I) was 239. The “Fold GS-6207 resistance” value (HIV-1 CA mutants; HIV-1 CA M66I) was >3,226, the “Fold GS-6207 resistance” value (HIV-1 CA mutants; HIV-1 CA N74D) was 22 and the “Fold GS-6207 resistance” value (HIV-1 CA mutants; HIV-1 CA Q67H) was 6. For the same molecule, the “Fold GS-6207 resistance” value (HIV-1 CA mutants; HIV-1 CA WT) was 1, the hepatic extraction [8] was 0.8% and the “predicted rate of hepatic clearance” value [8] was 0.17 mL/min/kg. The Acne ([9]; 30 mg (n = 8)) was 0 n (%), the “Any AE” value ([9]; 30 mg (n = 8)) was 4 (50) n (%) and the Back pain ([9]; 30 mg (n = 8)) was 0 n (%). The Dizziness ([9]; 30 mg (n = 8)) was 0 n (%), the Headache ([9]; 30 mg (n = 8)) was 2 (25) n (%) and the Injection site bruising ([9]; 30 mg (n = 8)) was 0 n (%). For the same molecule, the Injection site erythema ([9]; 30 mg (n = 8)) was 1 (13) n (%), the Injection site induration ([9]; 30 mg (n = 8)) was 0 n (%) and the Injection site nodule ([9]; 30 mg (n = 8)) was 0 n (%). For the same molecule, the Injection site pain ([9]; 30 mg (n = 8)) was 0 n (%), the Injection site pruritus ([9]; 30 mg (n = 8)) was 1 (13) n (%) and the Injection site swelling ([9]; 30 mg (n = 8)) was 1 (13) n (%). The Nausea ([9]; 30 mg (n = 8)) was 1 (13) n (%), the Oropharyngeal pain ([9]; 30 mg (n = 8)) was 1 (13) n (%) and the Skin mass ([9]; 30 mg (n = 8)) was 0 n (%). The “Viral upper respiratory tract infection” value ([9]; 30 mg (n = 8)) was 0 n (%), the Acne ([9]; 100 mg (n = 8)) was 0 n (%) and the “Any AE” value ([9]; 100 mg (n = 8)) was 8 (100) n (%). For the same molecule, the Back pain ([9]; 100 mg (n = 8)) was 0 n (%), the Dizziness ([9]; 100 mg (n = 8)) was 0 n (%) and the Headache ([9]; 100 mg (n = 8)) was 1 (13) n (%). For the same molecule, the Injection site bruising ([9]; 100 mg (n = 8)) was 0 n (%), the Injection site erythema ([9]; 100 mg (n = 8)) was 5 (63) n (%) and the Injection site induration ([9]; 100 mg (n = 8)) was 0 n (%). The Injection site nodule ([9]; 100 mg (n = 8)) was 5 (63) n (%), the Injection site pain ([9]; 100 mg (n = 8)) was 3 (38) n (%) and the Injection site pruritus ([9]; 100 mg (n = 8)) was 0 n (%). The Injection site swelling ([9]; 100 mg (n = 8)) was 5 (63) n (%), the Nausea ([9]; 100 mg (n = 8)) was 0 n (%) and the Oropharyngeal pain ([9]; 100 mg (n = 8)) was 0 n (%). For the same molecule, the Skin mass ([9]; 100 mg (n = 8)) was 0 n (%), the “Viral upper respiratory tract infection” value ([9]; 100 mg (n = 8)) was 0 n (%) and the Acne ([9]; 300 mg (n = 8)) was 0 n (%). The “Any AE” value ([9]; 300 mg (n = 8)) was 7 (88) n (%), the Back pain ([9]; 300 mg (n = 8)) was 2 (25) n (%) and the Dizziness ([9]; 300 mg (n = 8)) was 1 (13) n (%). For the same molecule, the Headache ([9]; 300 mg (n = 8)) was 2 (25) n (%), the Injection site bruising ([9]; 300 mg (n = 8)) was 1 (13) n (%) and the Injection site erythema ([9]; 300 mg (n = 8)) was 6 (75) n (%). For the same molecule, the Injection site induration ([9]; 300 mg (n = 8)) was 6 (75) n (%), the Injection site nodule ([9]; 300 mg (n = 8)) was 3 (38) n (%) and the Injection site pain ([9]; 300 mg (n = 8)) was 6 (75) n (%). For the same molecule, the Injection site pruritus ([9]; 300 mg (n = 8)) was 1 (13) n (%), the Injection site swelling ([9]; 300 mg (n = 8)) was 1 (13) n (%) and the Nausea ([9]; 300 mg (n = 8)) was 1 (13) n (%). The Oropharyngeal pain ([9]; 300 mg (n = 8)) was 0 n (%), the Skin mass ([9]; 300 mg (n = 8)) was 1 (13) n (%) and the “Viral upper respiratory tract infection” value ([9]; 300 mg (n = 8)) was 0 n (%). For the same molecule, the Acne ([9]; 450 mg (n = 8)) was 2 (25) n (%), the “Any AE” value ([9]; 450 mg (n = 8)) was 6 (75) n (%) and the Back pain ([9]; 450 mg (n = 8)) was 0 n (%). For the same molecule, the Dizziness ([9]; 450 mg (n = 8)) was 1 (13) n (%), the Headache ([9]; 450 mg (n = 8)) was 0 n (%) and the Injection site bruising ([9]; 450 mg (n = 8)) was 0 n (%). The Injection site erythema ([9]; 450 mg (n = 8)) was 3 (38) n (%), the Injection site induration ([9]; 450 mg (n = 8)) was 2 (25) n (%) and the Injection site nodule ([9]; 450 mg (n = 8)) was 1 (13) n (%). The Injection site pain ([9]; 450 mg (n = 8)) was 3 (38) n (%), the Injection site pruritus ([9]; 450 mg (n = 8)) was 1 (13) n (%) and the Injection site swelling ([9]; 450 mg (n = 8)) was 0 n (%). For the same molecule, the Nausea ([9]; 450 mg (n = 8)) was 0 n (%), the Oropharyngeal pain ([9]; 450 mg (n = 8)) was 0 n (%) and the Skin mass ([9]; 450 mg (n = 8)) was 1 (13) n (%). The “Viral upper respiratory tract infection” value ([9]; 450 mg (n = 8)) was 2 (25) n (%), the safety and tolerability ([9]; single SC 30 to 450 mg, healthy participants) was “generally safe and well tolerated” and the “decrease in phenotypic susceptibility” value (HIV-1 capsid) was 1.6 fold. The EC50 (clinical HIV-1 isolates; read-out: EC50 range) was 0.02 to 0.16 nM and the EC50 (clinical HIV-1 isolates; read-out: mean EC50) was 0.05 nM.
